Legend:
Assay in all cases: biochemical
ALK(F1174L) = ALK(F1174L) (Homo sapiens, UniProt Q9UM73, F1174L)
Method in brief: (§1)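 Reactions at room temperature in HEPES buffer (20 mM, pH 7.5, 0.01% Triton X-100, 2 mM DTT) lasted 1 or 5 h depending on kinase, with substrate peptide and ATP-metal. Phosphorylation read by electrophoretic mobility shift or IMAP polarization; kinase activity computed as P/(P + S).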

AurB = molecular target: T1, AurB (Homo sapiens, UniProt Q96GD4)
T1 construct: gene AURKB
Method in brief: as §1

CHK2 = molecular target: T2, CHK2 (Homo sapiens, UniProt O96017)
T2 construct: gene CHEK2
Method in brief: as §1

CK1γ2 = molecular target: T3, CK1γ2 (Homo sapiens, UniProt P78368)
T3 construct: gene CSNK1G2
Method in brief: as §1

CaMK2β = molecular target: T4, CaMK2β (Homo sapiens, UniProt Q13554)
T4 construct: gene CAMK2B
Method in brief: as §1

CaMK4 = CaMK4 (Homo sapiens, UniProt Q16566)
Method in brief: as §1

DCAMKL2 = molecular target: T5, DCAMKL2 (Homo sapiens, UniProt Q8N568)
T5 construct: gene DCLK2
Method in brief: as §1

DYRK3 = DYRK3 (Homo sapiens, UniProt O43781)
Method in brief: as §1

EPHA6 = EPHA6 (Homo sapiens, UniProt Q9UF33)
Method in brief: as §1

EPHB4 = EPHB4 (Homo sapiens, UniProt P54760)
Method in brief: as §1

FGFR1(V561M) = FGFR1(V561M) (Homo sapiens, UniProt P11362, V561M)
Chain of FGFR1(V561M) (P11362 whole entry V561M): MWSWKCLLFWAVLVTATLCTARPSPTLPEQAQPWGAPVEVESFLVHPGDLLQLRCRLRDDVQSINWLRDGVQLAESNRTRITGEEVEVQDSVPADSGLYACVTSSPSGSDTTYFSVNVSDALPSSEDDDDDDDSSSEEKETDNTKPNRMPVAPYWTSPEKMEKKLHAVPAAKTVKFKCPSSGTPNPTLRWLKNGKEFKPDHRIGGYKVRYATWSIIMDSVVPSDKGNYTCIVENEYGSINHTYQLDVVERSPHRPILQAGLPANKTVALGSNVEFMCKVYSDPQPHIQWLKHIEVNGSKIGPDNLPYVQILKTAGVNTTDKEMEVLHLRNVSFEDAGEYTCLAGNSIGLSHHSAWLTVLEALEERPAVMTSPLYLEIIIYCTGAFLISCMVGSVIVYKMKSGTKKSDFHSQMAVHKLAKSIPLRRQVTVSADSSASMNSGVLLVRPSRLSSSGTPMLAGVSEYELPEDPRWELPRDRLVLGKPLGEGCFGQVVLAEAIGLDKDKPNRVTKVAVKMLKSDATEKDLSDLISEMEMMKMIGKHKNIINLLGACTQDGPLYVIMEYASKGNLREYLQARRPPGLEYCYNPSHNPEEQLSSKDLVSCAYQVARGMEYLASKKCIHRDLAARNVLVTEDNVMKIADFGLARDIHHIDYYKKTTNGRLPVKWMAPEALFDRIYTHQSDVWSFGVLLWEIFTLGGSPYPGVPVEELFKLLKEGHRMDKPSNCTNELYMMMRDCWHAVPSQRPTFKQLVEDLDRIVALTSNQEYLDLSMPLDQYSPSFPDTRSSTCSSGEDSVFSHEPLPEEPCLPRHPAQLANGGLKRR
Method in brief: as §1

FRK = FRK (Homo sapiens, UniProt P42685)
Method in brief: as §1

HER4 = molecular target: T6, HER4 (Homo sapiens, UniProt Q15303)
T6 construct: gene ERBB4
T6 sequence (Q15303 whole entry): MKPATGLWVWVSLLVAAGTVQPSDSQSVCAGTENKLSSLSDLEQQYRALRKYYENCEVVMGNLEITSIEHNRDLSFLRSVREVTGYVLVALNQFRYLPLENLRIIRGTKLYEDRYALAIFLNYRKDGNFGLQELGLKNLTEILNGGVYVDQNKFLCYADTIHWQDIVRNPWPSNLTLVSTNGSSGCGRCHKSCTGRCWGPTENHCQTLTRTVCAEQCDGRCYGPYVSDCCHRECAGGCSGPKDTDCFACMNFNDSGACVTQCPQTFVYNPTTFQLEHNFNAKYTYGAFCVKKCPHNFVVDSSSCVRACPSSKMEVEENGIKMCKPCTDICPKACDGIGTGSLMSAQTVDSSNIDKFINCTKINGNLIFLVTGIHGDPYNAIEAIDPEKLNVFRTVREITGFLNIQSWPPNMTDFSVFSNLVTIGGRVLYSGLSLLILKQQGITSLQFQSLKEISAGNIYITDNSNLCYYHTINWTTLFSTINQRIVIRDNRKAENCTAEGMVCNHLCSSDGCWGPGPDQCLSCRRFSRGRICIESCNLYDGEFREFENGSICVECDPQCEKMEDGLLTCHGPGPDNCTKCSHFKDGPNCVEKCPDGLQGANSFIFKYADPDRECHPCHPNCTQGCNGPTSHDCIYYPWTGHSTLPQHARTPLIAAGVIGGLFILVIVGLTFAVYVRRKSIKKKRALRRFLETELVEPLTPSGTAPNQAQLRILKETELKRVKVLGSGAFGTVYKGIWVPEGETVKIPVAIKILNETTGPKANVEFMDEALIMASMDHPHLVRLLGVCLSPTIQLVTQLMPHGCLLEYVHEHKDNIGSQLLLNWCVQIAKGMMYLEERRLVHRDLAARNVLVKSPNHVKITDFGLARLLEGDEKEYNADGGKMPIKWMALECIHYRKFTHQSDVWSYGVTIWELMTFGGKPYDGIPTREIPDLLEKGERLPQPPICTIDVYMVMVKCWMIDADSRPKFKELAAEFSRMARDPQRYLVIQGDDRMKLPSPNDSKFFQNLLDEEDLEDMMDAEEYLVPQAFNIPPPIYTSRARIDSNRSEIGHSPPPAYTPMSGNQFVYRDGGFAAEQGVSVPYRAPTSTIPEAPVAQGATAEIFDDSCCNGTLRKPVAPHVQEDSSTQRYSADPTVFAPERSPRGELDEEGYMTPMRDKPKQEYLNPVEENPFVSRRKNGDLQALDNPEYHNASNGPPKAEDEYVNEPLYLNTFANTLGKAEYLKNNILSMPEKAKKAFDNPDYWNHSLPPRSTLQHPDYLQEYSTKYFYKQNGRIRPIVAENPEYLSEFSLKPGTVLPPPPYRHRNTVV
Method in brief: as §1

IRAK4 = IRAK4 (Homo sapiens, UniProt Q9NWZ3)
Method in brief: as §1

MINK = molecular target: T7, MINK (Homo sapiens, UniProt Q8N4C8)
T7 construct: gene MINK1
Method in brief: as §1

MNK1 = molecular target: T8, MNK1 (Homo sapiens, UniProt Q9BUB5)
T8 construct: gene MKNK1
Method in brief: as §1

MNK2 = molecular target: T9, MNK2 (Homo sapiens, UniProt Q9HBH9)
T9 construct: gene MKNK2
Method in brief: as §1

NDR1 = molecular target: T10, NDR1 (Homo sapiens, UniProt Q15208)
T10 construct: gene STK38
Method in brief: as §1

NEK9 = NEK9 (Homo sapiens, UniProt Q8TD19)
Method in brief: as §1

PASK = PASK (Homo sapiens, UniProt Q96RG2)
Chain of PASK (Q96RG2 whole entry): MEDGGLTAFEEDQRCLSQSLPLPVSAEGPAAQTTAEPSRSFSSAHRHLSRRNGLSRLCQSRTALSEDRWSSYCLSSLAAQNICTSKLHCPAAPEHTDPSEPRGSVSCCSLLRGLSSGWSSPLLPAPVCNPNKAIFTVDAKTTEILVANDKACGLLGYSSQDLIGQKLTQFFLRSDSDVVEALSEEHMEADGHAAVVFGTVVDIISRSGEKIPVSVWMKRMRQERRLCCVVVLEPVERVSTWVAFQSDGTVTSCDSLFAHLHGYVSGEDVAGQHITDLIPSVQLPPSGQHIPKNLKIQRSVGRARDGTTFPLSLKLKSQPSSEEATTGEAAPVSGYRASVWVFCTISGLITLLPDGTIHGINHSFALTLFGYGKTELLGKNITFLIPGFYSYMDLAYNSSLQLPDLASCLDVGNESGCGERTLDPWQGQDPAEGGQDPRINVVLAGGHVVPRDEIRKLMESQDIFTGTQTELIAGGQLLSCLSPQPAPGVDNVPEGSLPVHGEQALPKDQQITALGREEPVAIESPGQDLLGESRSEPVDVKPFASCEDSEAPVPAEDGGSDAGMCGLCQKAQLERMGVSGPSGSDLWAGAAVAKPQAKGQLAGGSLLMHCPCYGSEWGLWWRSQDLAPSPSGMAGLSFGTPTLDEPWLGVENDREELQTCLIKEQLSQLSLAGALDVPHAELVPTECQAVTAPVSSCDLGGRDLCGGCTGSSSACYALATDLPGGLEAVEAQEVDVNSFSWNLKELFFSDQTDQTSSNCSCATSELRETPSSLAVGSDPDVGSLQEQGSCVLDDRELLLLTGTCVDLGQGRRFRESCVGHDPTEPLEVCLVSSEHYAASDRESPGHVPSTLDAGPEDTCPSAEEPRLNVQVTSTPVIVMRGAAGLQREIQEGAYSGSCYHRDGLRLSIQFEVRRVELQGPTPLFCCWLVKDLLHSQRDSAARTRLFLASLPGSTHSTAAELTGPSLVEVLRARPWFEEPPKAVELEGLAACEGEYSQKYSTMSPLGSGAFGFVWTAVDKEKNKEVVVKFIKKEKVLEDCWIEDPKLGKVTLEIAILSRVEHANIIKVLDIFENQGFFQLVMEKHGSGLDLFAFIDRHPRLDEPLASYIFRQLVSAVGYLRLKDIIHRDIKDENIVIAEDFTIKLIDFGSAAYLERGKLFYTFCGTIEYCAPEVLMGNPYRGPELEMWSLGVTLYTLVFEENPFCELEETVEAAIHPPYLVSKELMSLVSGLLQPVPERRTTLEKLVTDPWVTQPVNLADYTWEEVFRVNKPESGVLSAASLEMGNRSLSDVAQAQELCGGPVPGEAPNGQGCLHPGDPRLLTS
Method in brief: as §1

PDGFRα = molecular target: T11, PDGFRα (Homo sapiens, UniProt P16234)
T11 construct: gene PDGFRA
Method in brief: as §1

PGK = molecular target: T12, PGK (Homo sapiens, UniProt Q13976)
T12 construct: gene PRKG1
T12 sequence (Q13976 whole entry): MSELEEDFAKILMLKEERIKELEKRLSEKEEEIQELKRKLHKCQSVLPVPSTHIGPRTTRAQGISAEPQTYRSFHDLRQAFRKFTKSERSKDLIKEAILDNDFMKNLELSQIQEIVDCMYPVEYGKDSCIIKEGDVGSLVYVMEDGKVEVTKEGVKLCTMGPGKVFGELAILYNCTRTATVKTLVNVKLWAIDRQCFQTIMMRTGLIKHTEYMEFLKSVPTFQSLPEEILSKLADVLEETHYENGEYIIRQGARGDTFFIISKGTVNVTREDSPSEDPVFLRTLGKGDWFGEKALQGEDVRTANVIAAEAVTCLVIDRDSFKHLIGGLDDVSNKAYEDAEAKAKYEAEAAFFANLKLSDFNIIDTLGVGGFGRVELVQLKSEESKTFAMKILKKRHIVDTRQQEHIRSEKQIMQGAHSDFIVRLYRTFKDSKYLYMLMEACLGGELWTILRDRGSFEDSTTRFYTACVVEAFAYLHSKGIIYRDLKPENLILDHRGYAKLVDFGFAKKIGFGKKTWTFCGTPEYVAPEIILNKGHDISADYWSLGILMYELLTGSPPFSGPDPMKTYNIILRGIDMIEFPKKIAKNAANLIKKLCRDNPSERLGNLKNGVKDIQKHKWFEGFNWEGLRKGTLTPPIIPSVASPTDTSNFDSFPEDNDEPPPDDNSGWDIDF
Method in brief: as §1

PKD3 = molecular target: T13, PKD3 (Homo sapiens, UniProt O94806)
T13 construct: gene PRKD3
T13 sequence (O94806 whole entry): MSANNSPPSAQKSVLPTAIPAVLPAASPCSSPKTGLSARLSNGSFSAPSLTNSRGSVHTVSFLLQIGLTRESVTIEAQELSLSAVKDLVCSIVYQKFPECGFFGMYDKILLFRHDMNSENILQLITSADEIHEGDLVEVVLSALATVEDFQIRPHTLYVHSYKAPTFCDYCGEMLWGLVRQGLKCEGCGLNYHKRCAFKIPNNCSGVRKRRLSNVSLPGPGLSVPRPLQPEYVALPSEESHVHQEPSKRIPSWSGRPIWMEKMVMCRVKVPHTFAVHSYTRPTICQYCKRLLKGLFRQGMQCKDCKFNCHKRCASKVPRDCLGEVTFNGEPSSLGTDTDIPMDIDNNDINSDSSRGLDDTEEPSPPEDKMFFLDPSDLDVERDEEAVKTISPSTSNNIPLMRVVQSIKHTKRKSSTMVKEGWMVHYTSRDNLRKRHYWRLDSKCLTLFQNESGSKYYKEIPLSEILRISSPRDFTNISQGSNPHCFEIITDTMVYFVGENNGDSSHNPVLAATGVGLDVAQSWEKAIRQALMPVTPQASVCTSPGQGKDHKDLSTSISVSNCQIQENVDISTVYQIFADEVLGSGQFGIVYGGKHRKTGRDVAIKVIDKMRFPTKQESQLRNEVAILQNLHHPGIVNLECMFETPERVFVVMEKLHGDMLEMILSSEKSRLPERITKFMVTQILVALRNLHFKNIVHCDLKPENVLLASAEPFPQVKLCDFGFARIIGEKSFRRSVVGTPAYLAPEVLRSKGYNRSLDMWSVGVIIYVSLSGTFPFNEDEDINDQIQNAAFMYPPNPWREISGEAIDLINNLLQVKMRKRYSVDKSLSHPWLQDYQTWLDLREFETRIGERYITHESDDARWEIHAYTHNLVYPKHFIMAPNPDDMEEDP
Method in brief: as §1

PKN1 = PKN1 (Homo sapiens, UniProt Q16512)
Method in brief: as §1

ROCK2 = ROCK2 (Homo sapiens, UniProt O75116)
Method in brief: as §1

SIK = molecular target: T14, SIK (Homo sapiens, UniProt P57059)
T14 construct: gene SIK1
Method in brief: as §1

TBK1 = TBK1 (Homo sapiens, UniProt Q9UHD2)
Method in brief: as §1

TNIK = TNIK (Homo sapiens, UniProt Q9UKE5)
Method in brief: as §1

WNK3 = WNK3 (Homo sapiens, UniProt Q9BYP7)
Method in brief: as §1

p38α = molecular target: T15, p38α (Homo sapiens, UniProt Q16539)
T15 construct: gene MAPK14
Method in brief: as §1

p70S6K = molecular target: T16, p70S6K (Homo sapiens, UniProt P23443)
T16 construct: gene RPS6KB1
Method in brief: as §1

c1cc(-c2ccc3[nH]ncc3c2)ccn1 [TG693, 5-(4-pyridinyl)-1H-indazole]
inhibition at 1 µM (ALK(F1174L)): -6.9%
inhibition at 1 µM (AurB): 6.1%
inhibition at 1 µM (CHK2): -1%
inhibition at 1 µM (CK1γ2): -3.2%
inhibition at 1 µM (CaMK2β): 2.8%
inhibition at 1 µM (CaMK4): 0.5%
inhibition at 1 µM (DCAMKL2): 9.6%
inhibition at 1 µM (DYRK3): 64%
inhibition at 1 µM (EPHA6): -3.5%
inhibition at 1 µM (EPHB4): -1.5%
inhibition at 1 µM (FGFR1(V561M)): -11.6%
inhibition at 1 µM (FRK): -2.3%
inhibition at 1 µM (HER4): 5.8%
inhibition at 1 µM (IRAK4): 8.4%
inhibition at 1 µM (MINK): 23.2%
inhibition at 1 µM (MNK1): 45.7%
inhibition at 1 µM (MNK2): 57.3%
inhibition at 1 µM (NDR1): 11.5%
inhibition at 1 µM (NEK9): -5.1%
inhibition at 1 µM (PASK): 14.7%
inhibition at 1 µM (PDGFRα): 6.2%
inhibition at 1 µM (PGK): 11%
inhibition at 1 µM (PKD3): -9%
inhibition at 1 µM (PKN1): 34.5%
inhibition at 1 µM (ROCK2): 46.3%
inhibition at 1 µM (SIK): 3.2%
inhibition at 1 µM (TBK1): 5.8%
inhibition at 1 µM (TNIK): 48.6%
inhibition at 1 µM (WNK3): -4.9%
inhibition at 1 µM (p38α): -0.1%
inhibition at 1 µM (p70S6K): 46%
